Values quoted from earlier work in patent publication US20120316496A1, “USE OF COMPOSITIONS TO COAT CATHETER BALLOONS AND COATED CATHETER BALLOONS” (priority 2009, published 2012).

Details: at 20° C.

SMILES	vapor pressure
C[S+](C)[O-] [DMSO, dimethyl sulfoxide]	250 Pa
CC12CCC(CC1=O)C2(C)C (stereo not shown) [Camphor]	20 Pa
CCOC(C)=O [Ethyl acetate]	9700 Pa
OCCO [Ethylene glycol]	5,3 Pa
